According to US20170280720A1, “ARGININE […] INHIBITORS AND USES THEREOF” (EPIZYME, INC., priority 2014, published 2017):

Biological target: T1, Human CARM1 (PRMT4) (Homo sapiens, UniProt Q86X55)
T1 construct: Flag-CARM1-His; made in house; host or cells: HEK 293F cells (BacMam baculovirus, pFastBacMam)
T1 sequence (Q86X55 2-585 isoform Q86X55-1): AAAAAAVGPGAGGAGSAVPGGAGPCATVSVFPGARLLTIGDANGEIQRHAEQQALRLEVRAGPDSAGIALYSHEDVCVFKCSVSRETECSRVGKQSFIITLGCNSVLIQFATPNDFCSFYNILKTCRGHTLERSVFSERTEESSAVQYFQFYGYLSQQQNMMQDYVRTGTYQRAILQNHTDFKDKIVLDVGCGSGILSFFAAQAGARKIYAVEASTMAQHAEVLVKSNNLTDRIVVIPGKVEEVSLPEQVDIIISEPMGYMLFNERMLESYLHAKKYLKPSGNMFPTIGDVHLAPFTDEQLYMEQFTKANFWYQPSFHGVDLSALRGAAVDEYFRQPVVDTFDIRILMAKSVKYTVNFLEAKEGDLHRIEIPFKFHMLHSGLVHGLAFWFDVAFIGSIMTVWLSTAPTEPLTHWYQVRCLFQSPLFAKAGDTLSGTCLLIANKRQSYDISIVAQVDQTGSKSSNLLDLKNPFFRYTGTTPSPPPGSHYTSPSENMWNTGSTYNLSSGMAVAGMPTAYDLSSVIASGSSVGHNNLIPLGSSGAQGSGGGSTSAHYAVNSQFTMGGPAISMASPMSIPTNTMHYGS
Assay: CARM1 biochemical assay (3H-SAM Flashplate, peptide substrate)
Conditions: read-out: CARM1_ IC50
Summary of the method: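 FLAG/His-tagged human CARM1 (isoform 1, Δ539-561, baculovirus-expressed), 0.25 nM, preincubated 30 min at room temperature with compound (2% DMSO) in 20 mM Bicine pH 7.6, then reacted with 30 nM 3H-SAM and 250 nM biotinylated H3 16-30 peptide (R26 monomethyl). Stopped with 300 uM cold SAM; labelled peptide captured on streptavidin Flashplate; % inhibition versus DMSO and 1 mM SAH controls fitted to a 4- or 3-parameter curve.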

SMILES	IC50
CNCCN(C)Cc1cccc(-c2cc(C(=O)N[C@@H](C)c3ccccc3)c3cnn(C(C)C)c3n2)c1 [Compound 44]	18.6 nM
CC(C)n1cnc2cc(-c3cccc(CN(C)CCN)c3)ccc21 [Compound 32]	7040 nM
CC(C)n1ncc2c(C(=O)NCC3CCOCC3)cc(-c3cccc(CN(C)CCNC4CC4)c3)nc21 [Compound 167]	98.2 nM
CNCCN(C)Cc1cccc(-c2cc(NS(C)(=O)=O)c3cnn(C(C)C)c3n2)c1 [Compound 169]	125 nM
Cc1ccc(-n2cnc3cc(-c4ccc(CNCCN)cc4)ccc32)cc1 [Compound 131]	2840 nM
CNCCN(C)Cc1cccc(-c2cc(C(=O)NCc3cnn(C)c3C)c3cnn(C(C)C)c3n2)c1 [Compound 137]	6.06 nM
CNCCN(C)Cc1cccc(-c2cc(OCC(F)(F)F)c3cnn(C(C)C)c3n2)c1 [Compound 154]	46.9 nM
CN(CCN)Cc1cccc(-c2nc(NCc3nccs3)c3cnn(C4CC4)c3n2)c1 [Compound 1]	3.56 nM
CC(C)n1ncc2c(C(=O)N3CCCCC3)cc(-c3cccc(CN(C)CCN)c3)nc21 [Compound 43]	176 nM
CNCCN(C)Cc1cccc(-c2ccc3c(c2)ncn3CCOC)c1 [Compound 34]	10000 nM
CNCCN(C)Cc1cccc(-c2ccc3ncn(C(C)C)c3c2)c1 [Compound 28]	12200 nM
CCS(=O)(=O)Nc1cc(-c2cccc(CN(C)CCNC)c2)nc2c1cnn2C(C)C [Compound 161]	169 nM
CC(C)n1ncc2c(C(=O)NCc3ccc(F)cc3)cc(-c3cccc(CN(C)CCN)c3)nc21 [Compound 25]	32.9 nM
CNCCN(C)Cc1cccc(-c2cnc3c(c2)c(Br)nn3CC2CCOCC2)c1 [Compound 39]	6790 nM
CNCCN(C)Cc1cccc(-c2ccc3cn(Cc4ccccc4)nc3n2)c1 [Compound 35]	4960 nM
Cc1c(C(=O)NCc2ccccc2)cc(-c2cccc(CN(C)CCN)c2)c2cn[nH]c12 [Compound 15]	973 nM
CN(CCN)Cc1cccc(-c2cc(C(=O)NC3CCOCC3)c3cnn(CC(F)(F)F)c3n2)c1 [Compound 144]	26.7 nM
CC(C)n1ncc2c(C(=O)NCc3ccccc3)cc(-c3cccc(CNCCN)c3)nc21 [Compound 155]	115 nM
CN(CCN)Cc1cccc(-c2cc(C(=O)NC3CCOCC3)c3cnn(C4CC4)c3n2)c1 [Compound 142]	9.43 nM
CNCCN(C)Cc1cccc(-c2cc(C(=O)NCC3CCOCC3)c3cnn(C4CCC4)c3n2)c1 [Compound 21]	43.9 nM
NCCNCc1ccc(-c2cnc3c(c2)OCC(=O)N3)cc1 [Compound 358]	6290 nM
CC(C)n1ncc2c(C(=O)N[C@@H](C)c3ccccc3)cc(-c3cccc(CN(C)CCN)c3)cc21 [Compound 10]	45.2 nM

SMILES	IC50
CCC(=O)c1cc(-c2cccc(CN(C)CCNC)c2)nc2c1cnn2C(C)C [Compound 128]	30.8 nM
COc1cccc(Cc2nc3ccc(-c4ccc(CNCCN)cc4)cc3n2C(C)C)c1 [Compound 135]	4920 nM
CC(C)n1ncc2c(C(=O)N(C)Cc3ccccc3)cc(-c3cccc(CN(C)CCN)c3)nc21 [Compound 31]	21.7 nM
CNCCN(C)Cc1cccc(-c2cc(Oc3ccccc3)c3cnn(C(C)C)c3n2)c1 [Compound 45]	84.1 nM
CNCCN(C)Cc1cccc(-c2cc(NC(=O)NC)c3cnn(C(C)C)c3n2)c1 [Compound 138]	18.7 nM
CNCCN(C)Cc1cccc(-c2cnc3c(c2)OCC(=O)N3)c1 [Compound 355]	10000 nM
CNCCN(C)Cc1cccc(-c2cc(C(=O)N[C@@H](C)c3ccccc3)c3cn[nH]c3n2)c1 [Compound 12]	79.3 nM
CC(C)n1ncc2c(C(=O)NCc3ccncc3)cc(-c3cccc(CNCCN)c3)nc21 [Compound 150]	274 nM
CC(C)n1ncc2c(C(=O)NCc3ccccc3)cc(-c3cccc(CNCCN)c3)cc21 [Compound 134]	334 nM
CNCCN(C)Cc1cccc(-c2cc(NC3CC3)c3cnn(C(C)C)c3n2)c1 [Compound 11]	32.8 nM
CNCCN(C)Cc1cccc(-c2cc(NS(=O)(=O)N(C)C)c3cnn(C(C)C)c3n2)c1 [Compound 139]	37.3 nM
Cc1nn(C(C)C)c2nc(-c3cccc(CN(C)CCN)c3)cc(N3CCOCC3)c12 [Compound 22, N1-(3-(1-isopropyl-3-methyl-4-morpholino-1H-pyrazolo[3,4-b]pyridin-6-yl)benzyl)-N1-methylethane-1,2-diamine]	8.97 nM
CC(C)n1ncc2c(C(=O)NCc3ccccc3)cc(-c3cccc(CN(C)CCN)c3)cc21 [Compound 14]	135 nM
CC(C)n1ncc2c(C(=O)NC3CCOCC3)cc(-c3cccc(CN(C)CCN)c3)nc21 [Compound 148]	10.9 nM
CC(C)n1ncc2c(NC3CC3)cc(-c3cccc(CN(C)CCN)c3)nc21 [Compound 41]	13.4 nM
CC(C)n1ncc2c(C(=O)NCc3c(F)cccc3F)cc(-c3cccc(CNCCN)c3)nc21 [Compound 168]	23.3 nM
CN(CCN)Cc1cccc(-c2nc(NCc3cccnc3)c3cnn(C4CC4)c3n2)c1 [Compound 40]	7.14 nM
CC(C)n1cc2c(N)cc(-c3cccc(CN(C)CCN)c3)nc2n1 [Compound 13]	1710 nM
CNCCN(C)Cc1cccc(-c2cc(N)c3cnn(C(C)C)c3n2)c1 [Compound 151]	92.1 nM
Cc1cc2cc(-c3ccc(CNCCN)cc3)ccc2[nH]1 [Compound 141]	5810 nM
CNCCN(C)Cc1cc(-c2cc(C(=O)NC3CCOCC3)c3cnn(C(C)C)c3n2)ccc1F [Compound 130]	131 nM

More lines, now with the values ahead:

IC50	SMILES
15800 nM	CNCCN(C)Cc1cccc(-c2ccc3c(c2)ncn3C(C)C)c1 [Compound 36]
195 nM	CC(C)n1ncc2c(C(=O)N3CCCCC3)cc(-c3cccc(CNCCN)c3)nc21 [Compound 153]
18.7 nM	CNCCN(C)Cc1cccc(-c2cc(C(=O)NCc3ccccc3F)c3cnn(C(C)C)c3n2)c1 [Compound 38]
92.4 nM	CNCCN(C)Cc1cccc(-c2cc(C(=O)NC3CCOCC3)c3cnn(C4CCC4)c3n2)c1 [Compound 29]
2610 nM	NCCNCc1ccc(-c2cnc3c(c2)CCC(=O)N3)cc1 [Compound 156]
45.5 nM	CC(C)n1ncc2c(C(=O)N[C@@H](C)c3ccccc3)cc(-c3cccc(CN(C)CCN)c3)nc21 [Compound 136]
7.96 nM	CNC(=O)Nc1cc(-c2cccc(CN(C)CCN)c2)nc2c1cnn2C(C)C [Compound 126]
5.47 nM	CC(C)n1ncc2c(C(=O)NCc3c(F)cccc3F)cc(-c3cccc(CN(C)CCN)c3)nc21 [Compound 37]
358 nM	CNCCN(C)Cc1cccc(-c2cc(NS(=O)(=O)C(F)(F)F)c3cnn(C(C)C)c3n2)c1 [Compound 164]
4080 nM	COc1ccc(Cn2cnc3ccc(-c4ccc(CN(C)CCN)cc4)cc32)cc1 [Compound 16]
28 nM	CC(C)n1ncc2c(C(=O)N[C@@H](C)c3ccccc3)cc(-c3cccc(CNCCN)c3)nc21 [Compound 160]
8000 nM	N#Cc1cccc(Cn2cnc3ccc(-c4ccc(CNCCN)cc4)cc32)c1 [Compound 145]
12 nM	CNCCN(C)Cc1cccc(-c2cc(NC(=O)NC3CCOCC3)c3cnn(C(C)C)c3n2)c1 [Compound 133]
91.6 nM	CC(C)n1ncc2c(C(=O)NCC3CCN(C)CC3)cc(-c3cccc(CN(C)CCN(C)C)c3)nc21 [Compound 162]
38.5 nM	CN(CCN)Cc1cccc(-c2cc(C(=O)NC3CCOCC3)c3cnn(C)c3n2)c1 [Compound 158]
4.25 nM	CNCCN(C)Cc1cccc(-c2nc(NC3CCOCC3)c3cnn(C(C)(C)C)c3n2)c1 [Compound 27, N1-(3-(1-tert-butyl-4-(tetrahydro-2H-pyran-4-ylamino)-1H-pyrazolo[3,4-d]pyrimidin-6-yl)benzyl)-N1,N2-dimethylethane-1,2-diamine]
26.6 nM	CNCCN(C)Cc1cccc(-c2cc(C(=O)NCC3CCOCC3)c3cnn(C4CC4)c3n2)c1 [Compound 26]
12600 nM	CN(CCN)Cc1ccc(-c2ccc3ncn(-c4ccccc4)c3c2)cc1 [Compound 19]
852 nM	CNCCN(C)Cc1cccc(-c2ccc3ncn(C4CCOCC4)c3c2)c1 [Compound 30]
175 nM	CC(C)n1ncc2c(C(=O)NCc3ccccc3F)cc(-c3cccc(CNCCN)c3)nc21 [Compound 159]
5.83 nM	CN(CCN)Cc1cccc(-c2nc(NC3CCOCC3)c3cnn(C(C)(C)C)c3n2)c1 [Compound 18]
7210 nM	COc1ccc(Cn2cnc3ccc(-c4ccc(CNCCN)cc4)cc32)cc1 [Compound 132]
84.1 nM	CNCCN(C)Cc1cccc(-c2cc(C(=O)N3CCc4ccccc4C3)c3cnn(C(C)C)c3n2)c1 [Compound 42]
5620 nM	Cc1cccc(CCn2cnc3ccc(-c4ccc(CNCCN)cc4)cc32)c1 [Compound 143]
22.4 nM	CNCCN(C)Cc1cccc(-c2cc(C(=O)NCc3c(F)cccc3F)c3cnn(C(C)C)c3n2)c1 [Compound 47]
12900 nM	CS(=O)(=O)N1CCC(Cn2cnc3ccc(-c4ccc(CNCCN)cc4)cc32)CC1 [Compound 129]
